{"source": "PubChem BioAssay AID1981", "about": "(Southern Research Specialized Biocontainment Screening …, 2009)", "note": "pIC50: −log10 of the molar value.", "data": [{"system": "S. Typhimurium PhoP-promoter GFP reporter counterscreen, fluorescence, 4 h", "test": "S. Typhimurium GFP fluorescence dose response in modified counterscreen for PhoP regulon inhibitor project (AID 1981)", "values": [{"smiles": "CCN(CC)S(=O)(=O)c1cccc(C(=O)N/N=C/c2ccc(O)c(O)c2O)c1", "pIC50": 4.10}, {"smiles": "c1ccc(-c2cccc(-c3ccccn3)n2)nc1", "pIC50": 4.78}, {"smiles": "c1ccc(-c2nnc(-c3ccccn3)nc2NC2CCCCC2)cc1", "pIC50": 3.83}, {"smiles": "CN1CCN(C(c2ccc(C(F)(F)F)cc2)c2cc(Cl)c3cccnc3c2O)CC1", "note": "(configuration not stated)", "pIC50": 4.52}, {"smiles": "O=C(C[n+]1cc(-c2ccc(Cl)cc2)n2c1CCC2)Nc1nc(-c2ccccc2)cs1", "pIC50": 4.02}, {"smiles": "N=c1n(CC(=O)c2ccc(Br)s2)c2ccccc2n1Cc1ccccc1", "pIC50": 3.88}, {"smiles": "O=c1cc2oc3cc(O)c(O)cc3c(-c3ccccc3[N+](=O)[O-])c-2cc1O", "pIC50": 4.25}, {"smiles": "CC(C)NC1=C(Cl)C(=O)c2ccccc2C1=O", "pIC50": 4.23}, {"smiles": "CCn1cc(C(=O)NCCO)c(=O)c2cc(F)c(N3CCN(C)CC3)cc21", "pIC50": 4.52}, {"smiles": "CCn1cc(C(=O)O)c(=O)c2cc(F)c(N3CCN(C(=S)NC(=O)c4cccc(F)c4)CC3)cc21", "pIC50": 4.46}, {"smiles": "CN1CCc2c(sc(NC(=O)c3ccc([N+](=O)[O-])o3)c2C(N)=O)C1", "pIC50": 4.47}, {"smiles": "CCCCCCOC(=O)C[N+](C)(C)CCOC1CC2CCC1(C)C2(C)C", "note": "(configuration not stated)", "pIC50": 4.15}, {"smiles": "O=Nc1ccc(O)c2ncccc12", "pIC50": 4.38}, {"smiles": "COc1ccc(C(=O)N/N=C/c2sc3ccccc3c2O)cc1", "pIC50": 3.96}, {"smiles": "COc1cc(C)c(Cc2cnc(N)nc2N)cc1OC", "pIC50": 5.52}, {"smiles": "COc1cccc(Nc2nc(NCC3CCCO3)c3ccccc3n2)c1", "note": "(configuration not stated)", "pIC50": 3.99}, {"smiles": "CCCCCCCCCCOC(=O)Cn1c(COc2ccc(Cl)cc2)[n+](C)c2ccccc21", "pIC50": 4.57}, {"smiles": "O=C(NC(CO)Cc1ccc([N+](=O)[O-])cc1)C(Cl)Cl", "note": "(configuration not stated)", "pIC50": 5.02}, {"smiles": "CCc1ccc(S(=O)(=O)/N=C2/C=C(Sc3ncn[nH]3)C(=O)c3ccccc32)cc1", "pIC50": 3.86}, {"smiles": "COc1cccc(/C=N\\NC(=O)Cn2nnc3ccccc32)c1O", "pIC50": 4.12}, {"smiles": "O=[N+]([O-])c1cc(CN2CCOCC2)c2cccnc2c1O", "pIC50": 4.19}, {"smiles": "O=C(/C=C/c1ccco1)Oc1cc(Br)cc(/C=N/NC(=O)c2ccccc2O)c1", "pIC50": 3.87}, {"smiles": "Oc1cccc(/C=N/Nc2ccc(Cl)nn2)c1O", "pIC50": 4.61}, {"smiles": "Cc1ccc(S(=O)(=O)/N=C2/C=C(Sc3ncn[nH]3)C(=O)c3ccccc32)c(C)c1", "pIC50": 4.25}, {"smiles": "CC[C@H]1OC(=O)[C@H](C)[C@@H](O[C@H]2C[C@@](C)(OC)[C@@H](O)[C@H](C)O2)[C@H](C)[C@@H](O[C@@H]2O[C@H](C)C[C@H](N(C)C)[C@H]2O)[C@](C)(O)C[C@@H](C)[C@@H]2N[C@@H](COCCOC)O[C@H]([C@H]2C)[C@]1(C)O", "pIC50": 4.65}, {"smiles": "COc1c(N2CCN(C(=S)Nc3ccc(F)cc3)C(C)C2)c(F)cc2c(=O)c(C(=O)O)cn(C3CC3)c12", "note": "(configuration not stated)", "pIC50": 5.57}, {"smiles": "O=C1C=C(O)c2c(O)cc(O)c(O)c2C1=O", "pIC50": 4.16}, {"smiles": "CCCOc1ccc(C(=O)NC(=S)N2CCN(c3cc4c(cc3F)c(=O)c(C(=O)O)cn4CC)CC2)cc1", "pIC50": 4.73}, {"smiles": "NCC12CC3CC(C1)CC(c1ccc(Br)cc1)(C3)C2", "pIC50": 4.26}, {"smiles": "CCNC(=S)NNC(=O)c1ccccn1", "pIC50": 4.47}, {"smiles": "COC(=O)c1c(NC(=O)c2ccc([N+](=O)[O-])o2)sc2c1CCN(C(C)C)C2", "pIC50": 4.25}, {"smiles": "CCn1cc(C(=O)O)c(=O)c2cc(F)c(N3CCNCC3)cc21", "pIC50": 6.05}, {"smiles": "CNC[C@H](CC1CCCCC1)NC[C@H](Cc1ccccc1)NCCC12CC3CC(CC(C3)C1)C2", "pIC50": 4.71}, {"smiles": "CCCCCCCCCCOC(=O)Cn1c(COc2ccccc2OC)[n+](C)c2ccccc21", "pIC50": 4.43}, {"smiles": "CCn1cc(C(=O)O)c(=O)c2cnc(N3CCNCC3)nc21", "pIC50": 4.23}, {"smiles": "CCCCCCCCCn1c2c(c(=N)c3c1CCC3)CCCC2", "pIC50": 4.27}, {"smiles": "Nc1nnc(-c2cccc(Cl)c2Cl)c(N)n1", "pIC50": 4.18}, {"smiles": "CC[n+]1c(/C=C/c2ccc(N(C)C)cc2)ccc2ccccc21", "pIC50": 4.04}, {"smiles": "Cc1cc(SCC(=O)N/N=C/c2ccc(O)c(O)c2O)c(C)cc1Br", "pIC50": 4.64}, {"smiles": "O=C(N[C@H](CO)[C@H](O)c1ccc([N+](=O)[O-])cc1)C(Cl)Cl", "pIC50": 5.07}, {"smiles": "CN1CCN(C(c2ccc(Cl)cc2)c2cc(Cl)c3cccnc3c2O)CC1", "note": "(configuration not stated)", "pIC50": 4.48}, {"smiles": "O=C(N/N=C/c1cc(Cl)ccc1O)c1ccncc1", "pIC50": 4.51}]}]}
